Source: patent US20140170096A1, “SUNSCREEN COMPOSITIONS” (priority 2011, published 2014)

Experiments:
[1] = test system: stony coral Acropora sp. nubbins; test: Quantification of coral bleaching by colorimetric (CMYK) analysis of digital photographs; assay type: in vivo; conditions: Acropora sp. (stony coral), in vivo, 72 h
Protocol: (§1) In situ tests were performed on nubbins (i.e., small branches of about 3-6 cm) of the stony coral Acropora sp. The nubbins were incubated in microcosms in presence of known concentrations of various ingredients potentially to be included in the composition of the eco-compatible sunscreen cream. In particular, coral nubbins (including more than 3000 polyps each) were collected by scuba divers from the same colony, located at a depth of about 3 m on the edge of the reef slope. Sampling of nubbins was performed by means of forceps. The nubbins were washed with seawater filtered onto 0.02-μm filters to eliminate viruses and prokaryotes. Each microcosm was prepared with a replicate set of nubbins (n=3) immersed in sterile polyethylene bags (Whirl-pack, Nasco, Fort Atkinson, Wis., USA) filled with 2 L filtered seawater. A total of 27 microcosms were prepared, in order to test 20 ingredients with the respective positive and negative controls. The microcosms were incubated at in situ temperature and light conditions for 72 hours.
Photographs were taken under identical illumination with a Canon PowerShot A620 digital camera (Canon Inc., Tokyo, Japan) with a scale meter on the background. The photos were successively analyzed with a photo-editing software (Adobe Photoshop CS2) for color composition [cyan, magenta, yellow, black (CMYK)]. Levels of bleaching were measured as the difference between the corals' color at the beginning of the experiment and after treatments. Variations in the percentage of the different color components (CMYK) were analyzed with one-way analysis of variance (ANOVA). To rank the bleaching effect due to the compounds tested, a Bray-Curtis similarity matrix was prepared and a multidimensional scaling analysis of the shifts in CMYK color composition of treated corals was performed using Primer 5.0 software (Primer-E Ltd., Plymouth, UK). Bleaching rates were measured as the dissimilarity percentage in CMYK color composition between treated and control corals using the SIMPER tool of Primer 5.0 software (Primer-E Ltd).

[2] = test system: viruses in water surrounding coral nubbins; test: Viral abundance and viral enrichment in seawater surrounding coral nubbins (microcosm incubation); conditions: for Total viral abundances (TVN): seawater surrounding Acropora sp. nubbins, compound concentration per Table 2; for Viral enrichment factor (VEF): ratio of viral abundances, end vs start of incubation
Protocol: as §1
(§2) After subsampling, sea water was transferred into sterile test tubes without use of fixatives and stored at −20° C. until laboratory analysis for quantification of viral and prokaryotic abundance. Once in laboratory, the water samples were immediately processed. Briefly, 200 uL sea water were diluted 1:10 with prefiltered MilliQ water, through 0.02-μm pore filters (Anodisc filter; 25-mm diameter, Al2O3; Whatman) and stained with 20 μL SYBR Green (stock solution diluted 1:20; Invitrogen, Carlsbad, Calif., USA). […] Slides were stored at −20° C. until microscopy analysis. Virus and prokaryote counts were obtained by epifluorescence microscopy (magnification, ×1000; Zeiss Axioplan) by examining at least 10 optical fields, that is, at least 200 cells or viruses per replicate. Viral (and prokaryotic) enrichment was calculated as ratio between virus (and prokaryote) abundances and virus (and prokaryote) abundance at the […] of the experiment.

[3] = test system: prokaryotes in water surrounding coral nubbins; test: Prokaryotic (bacterial) abundance and enrichment in seawater surrounding coral nubbins (microcosm incubation); conditions: seawater surrounding Acropora sp. nubbins
Protocol: as §1, §2

[4] = test system: coral reefs; test: Summary of eco-compatibility of tested products with coral reefs; design: species or system Acropora sp.
Protocol: In order to select the most eco-compatible products for each group of compounds (i.e., base cream, fragrance, antioxidants and filters) the following criteria were selected:
1. coral bleaching level; 2. degree of release of symbiotic zooxanthellae; 3. zooxanthellae health conditions; 4. viral enrichment in the incubation medium with respect to controls.

[5] = test system: symbiotic zooxanthellae released from coral nubbins; test: Zooxanthellae counts: zooxanthellae released in water surrounding coral nubbins; assay type: in vivo, Acropora sp.; conditions: for Healthy zooxanthellae released / Pale zooxanthellae released / Total zooxanthellae released / Transparent (i.e., dead) zooxanthellae released: end of incubation (72 h); for Percentage of healthy zooxanthellae released / Percentage of pale zooxanthellae released / Percentage of transparent zooxanthellae released: of total released, end of incubation
Protocol: as §1
Subsamples (50 mL) of seawater surrounding coral nubbins were collected at the start of the experiment (T0) and after 6, 12, 24, 36, 48 and 72 hours of incubation. The subsamples were fixed in 3% glutaraldehyde and then about 6.0 ml of each replicate was filtered through 2.0-μm polycarbonate filters. Filters were mounted on glass slides and zooxanthellae counted under epifluorescence microscopy (Zeiss Axioplan, Carl Zeiss Inc., Jena, Germany; ×400 and ×1000) using standard and UV light.

CCCCCCCCCCCCCCCC(=O)OC/C=C(C)/C=C/C=C(C)/C=C/C1=C(C)CCCC1(C)C [System D19, retinyl palmitate]
Number of color channels (of 4, CMYK) significantly altered [1]: 1 | Total viral abundances (TVN) ([2]; incubation 0 (start)): 1.03E+05 viruses ml^−1 | Total viral abundances (TVN) ([2]; incubation 12 h): 1.98E+06 viruses ml^−1 | Viral enrichment factor (VEF) [2]: 18.92 | Bacterial abundance (total bacterial number, TBN) ([3]; incubation 0 (start)): 3.62E+04 | Bacterial abundance (total bacterial number, TBN) ([3]; incubation 12 h): 1.54E+06 | Eco-compatibility [4]: Compatible | Healthy zooxanthellae released [5]: 1.07E+03 cells ml^−1 | Pale zooxanthellae released [5]: 5.30E+03 cells ml^−1 | Total zooxanthellae released [5]: 1.23E+04 cells ml^−1 | Transparent (i.e., dead) zooxanthellae released [5]: 5.97E+03 cells ml^−1 | Percentage of healthy zooxanthellae released [5]: 9% | Percentage of pale zooxanthellae released [5]: 43% | Percentage of transparent zooxanthellae released [5]: 48%

CC1=C(/C=C/C(C)=C/C=C/C(C)=C/CO)C(C)(C)CCC1 [System D20, Retinol]
Number of color channels (of 4, CMYK) significantly altered [1]: 1 | Total viral abundances (TVN) ([2]; incubation 0 (start)): 2.47E+05 viruses ml^−1 | Total viral abundances (TVN) ([2]; incubation 12 h): 1.97E+06 viruses ml^−1 | Viral enrichment factor (VEF) [2]: 8.09 | Bacterial abundance (total bacterial number, TBN) ([3]; incubation 0 (start)): 3.62E+04 | Bacterial abundance (total bacterial number, TBN) ([3]; incubation 12 h): 1.71E+06 | Eco-compatibility [4]: Compatible | Healthy zooxanthellae released [5]: 6.04E+02 cells ml^−1 | Pale zooxanthellae released [5]: 7.18E+03 cells ml^−1 | Total zooxanthellae released [5]: 1.46E+04 cells ml^−1 | Transparent (i.e., dead) zooxanthellae released [5]: 6.84E+03 cells ml^−1 | Percentage of healthy zooxanthellae released [5]: 4% | Percentage of pale zooxanthellae released [5]: 49% | Percentage of transparent zooxanthellae released [5]: 47%
